Data on one compound can be found in patent US20200071316A1, “ACTIVATORS OF THE RETINOIC ACID INDUCIBLE GENE "RIG-I" PATHWAY AND METHODS OF USE THEREOF” (Kineta Immuno-Oncology LLC, priority 2018, published 2020).

Test [1] deals with RIG-I deficient CT26 RIG-1−/− cells. The experiment in a line: CXCL10 secretion in RIG-I deficient CT26 RIG-1−/− cells (ELISA). The format is cell-based, murine. Conditions: 10 μM compound, 24 h. The gist of the method: (§1)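 Murine CT26 colon carcinoma cells, and CRISPR-generated RIG-I knockout CT26 cells, were seeded at 1×10^4 cells/well and grown 24 h at 37 °C, 5% CO2, then treated with compounds at 5 to 20 μM. CXCL10 in supernatants was measured by ELISA 24 h after stimulation.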
In general terms: An ELISA detects its analyte on a solid surface through an enzyme-linked reagent.

Test [2] has as its system murine CT26 colon carcinoma cells. The test is described as follows: Compound-induced immunogenic cell death: calreticulin translocation to cell surface (MFI of CRT+ LDV− cells). The format is cell-based. Conditions: 18 h after treatment, dose titration, FIG. 1B. The text has this: (§2) To determine if the RIG-I agonist compounds induce immunogenic cell death in cancer cells, induction of apoptosis and the translocation or of calreticulin (CRT) to the cell surface in murine CT26 colon carcinoma cells were evaluation. The translocation of CRT occurs as part of a specific RIG-I dependent danger-signaling system, and the presence of CRT on the cell membrane promotes tumor antigen uptake by the dendritic cells and leads to the induction of am antigen-specific T cell response
(§3) The induction of apoptosis and the CRT translocation was measured by flow cytometry. […] Cells were harvested 18 h after treatment and then prepared for flow cytometry using an Annexin V staining kit (Biolegend) for quantification of apoptosis, an anti-CRT antibody (Abgent) for calreticulin translocation, and the Live/Dead-Violet staining kit (Thermofisher) for cell viability. Induction of apoptosis and translocation of calreticulin (CRT) to cell surface by live cells was determined by tri-color flow cytometry using FITC-labeled Annexin V, Live/Dead-Violet (LDV), and APC-anti-CRT. Apoptotic cells were defined as Annexin V^+ and calreticulin translocation to cell surface was quantified by mean fluorescent intensity (MFI) of calreticulin^+ live cells (CRT^+ LDV^−). […]

Test [3] deals with THP1-Lucia ISG IRF3 −/− cells. The experiment in a line: IRF3-deficient THP1-Lucia ISG IRF3 −/− reporter assay (counter-screen). It is filed as cell-based. Particulars: Homo sapiens, 10 μM compound, 18 h after stimulation, read-out: THP1 ISG IRF3 −/−: fold increase of luciferase activity over background. The gist of the method:
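PMA-differentiated (100 ng/ml) reporter cells carrying ISRE/ISG54 minimal promoter-driven secreted luciferase were stimulated with compounds at 5–20 μM (mostly 10 μM). Luciferase measured 18 h later and expressed as fold increase over untreated background, binned from "−" (<2.4-fold) to "+++++" (≥40-fold).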

Test [4] has as its system CXCL10 secretion by CT26 cells. The test is described as follows: RIG-I dependent CXCL10 secretion by CT26 colon carcinoma cells (ELISA). It is filed as cell-based, murine. Particulars: 10 μM compound, 24 h. The essentials:
as §1

For test [5], the system named is murine CT26 colon carcinoma cells. The experiment in a line: Compound-induced immunogenic cell death: apoptosis (Annexin V+) by flow cytometry. It is filed as cell-based. Particulars: 18 h after treatment, dose titration, FIG. 1A.
Excerpt: as §2, §3

Test [6] relates to IRF3 signaling pathway (IRF-inducible ISG54 promotor) in THP1-Lucia ISG cells. The experiment in a line: THP1-Lucia ISG reporter assay: induction of IRF3-dependent luciferase activity. The format is cell-based. Conditions: Homo sapiens, 10 μM compound, PMA-differentiated cells, 18 h after stimulation, read-out: THP1 ISG: fold increase of IRF3-dependent luciferase activity over background. The essentials:
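PMA-differentiated (100 ng/ml) reporter cells, parental and IRF3−/−, stimulated with compounds at 5–20 μM (mostly 10 μM). Secreted luciferase measured 18 h later. Scored as fold increase over untreated background in bands from "−" (<2.4-fold) to "+++++" (≥40-fold).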
Background: A reporter such as luciferase makes a cellular process visible.

Consider `O=C(Nc1c(Cl)cccc1Cl)c1ccc2nc(NC(=O)c3cc4ccccc4cc3OCCCCN3CCOCC3)sc2c1` [Example 19, N-(2,6-dichlorophenyl)-2-{3-[4-(morpholin-4-yl)butoxy]naphthalene-2-amido}-1,3-benzothiazole-6-carboxamide], for which, in test [1], the “CXCL10 secretion by CT26 RIG-I −/− cells” value is “− (“−” indicates less than 100 pg/mL)”. The “induction of immunogenic cell death: calreticulin translocation to cell surface” value in test [2] is recorded as “induction of immunogenic cell death”. In addition, the fold induction at 10 µM in test [3] is < 2.4; in test [6] it was 5 to 9.9. For the same compound, the “CXCL10 secretion by CT26 cells” value in test [4] is listed as “++++ (“++++” indicates 800 to 1599 pg/mL)”. Besides, in test [5], the “induction of immunogenic cell death: apoptosis (Annexin V+)” value was “induction of immunogenic cell death”.
